Common to all, as to type: biochemical
Assay [1] addresses T1, human neutrophil elastase (HNE) (Homo sapiens, UniProt P08246).
T1 sequence (P08246 30-267): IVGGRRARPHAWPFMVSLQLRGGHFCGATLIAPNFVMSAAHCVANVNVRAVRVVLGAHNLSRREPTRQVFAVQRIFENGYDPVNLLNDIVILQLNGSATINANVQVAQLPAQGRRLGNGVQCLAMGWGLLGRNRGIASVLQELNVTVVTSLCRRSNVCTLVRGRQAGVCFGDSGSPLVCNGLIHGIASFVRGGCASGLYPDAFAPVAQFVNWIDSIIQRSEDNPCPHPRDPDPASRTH
Nature of the assay: Inhibitory activity toward human neutrophil elastase, fluorogenic substrate, microplate reader. How it is done:
(§1) The biological activity of peptidyl derivatives of phosphonic analogs of valine, alanine, phenylalanine, 4-guanidinephenylglycine, leucine, and 1-aminobutyric acid, containing the N-terminal biotin residue were tested for their ability to inhibit proteolytic activity of selected serine proteases, and the control cysteine proteases. All tests were performed using a microplate reader. As enzyme substrates fluorescent peptides were used. The method to measure the activity of the compounds obtained are described below for each of the enzymes tested: human neutrophil elastase (HNE), porcine pancreatic elastase (PPE), subtilisin (Sub), cathepsin G (CatG), proteinase 3 (PR3), chymotrypsin (ChTry) trypsin (Try), papain (Pap) and cathepsin L (CatL). Measurement of the inhibitory activity was performed at different inhibitor concentrations ranging from 12.5 nM to 2000nm.
Measurement of inhibitory activity of compounds toward human neutrophil elastase (HNE).
The inhibitory activity assay is performed at 37°C in 0,01M HEPES, 0,5M NaCl, 0,03% Triton X-100 buffer, pH 7,5, within 10 min after initial pre-incubation of the enzyme with inhibitor tested at 37°C for 10 min. The enzyme concentration is 0,0025U/ml. Substrate used Me-Suc-Ala-Ala-Pro-Val-AFC at 25µM. Measurement is taken at an excitation wavelength of 400nm and 505nm emission.
(§2) The IC50 value is the concentration of inhibitor required to inhibit half of the enzyme activity after 10 minutes incubation.

Assay [2] concerns the target porcine pancreatic elastase (PPE) (Sus scrofa, UniProt P00772). The experiment in a line: Inhibitory activity toward porcine pancreatic elastase, fluorogenic substrate, microplate reader. How it is done: as §1
Measurement of inhibitory activity of compounds toward porcine pancreatic elastase (PPE).
The inhibitory activity assay is performed at 37°C in 0,01M Tris-HCl, 0,05% Triton X-100 buffer, pH 8,5, within 10 min after initial pre-incubation of the enzyme with inhibitor tested at 37°C for 10 min. The enzyme concentration is 60nM. Substrate used Me-Suc-Ala-Ala-Pro-Val-AMC at 100µM. Measurement is taken at an excitation wavelength of 350nm and 460nm emission.
as §2

The next assay concerns the target T2, proteinase 3 (PR3) (Homo sapiens, UniProt P24158).
T2 sequence (P24158 28-248): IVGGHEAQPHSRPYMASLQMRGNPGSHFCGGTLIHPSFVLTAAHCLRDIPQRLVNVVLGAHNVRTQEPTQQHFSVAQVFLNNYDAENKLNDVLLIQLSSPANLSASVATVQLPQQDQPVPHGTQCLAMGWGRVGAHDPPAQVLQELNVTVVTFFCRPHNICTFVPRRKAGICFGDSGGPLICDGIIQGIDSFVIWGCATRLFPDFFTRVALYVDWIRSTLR
Nature of the assay: Inhibitory activity toward proteinase 3, fluorogenic substrate, microplate reader. How it is done:
as §1
Measurement of inhibitory activity of compounds toward proteinase 3(PR3).
The inhibitory activity assay is performed at 37°C in 0,1M Tric-HCl, 0,5M NaCl buffer, pH 7,5, within 10 min after initial pre-incubation of the enzyme with inhibitor tested at 37°C for 10 min. The enzyme concentration is 17nM. Substrate used Abz-Tyr-Tyr-Abu-Anb-NH2 at 30µM. Measurement is taken at an excitation wavelength of 325nm and 400nm emission.
as §2

The next assay addresses T3, cathepsin G (CatG) (Homo sapiens, UniProt P08311).
T3 sequence (P08311 21-244): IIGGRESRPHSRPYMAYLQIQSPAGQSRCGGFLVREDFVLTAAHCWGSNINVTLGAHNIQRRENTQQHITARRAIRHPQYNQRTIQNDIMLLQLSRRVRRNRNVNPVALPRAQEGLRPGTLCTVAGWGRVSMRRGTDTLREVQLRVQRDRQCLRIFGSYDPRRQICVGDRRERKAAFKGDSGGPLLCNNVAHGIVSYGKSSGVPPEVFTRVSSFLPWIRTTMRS
The experiment in a line: Inhibitory activity toward cathepsin G, fluorogenic substrate, microplate reader. How it is done:
as §1
Measurement of inhibitory activity of compounds toward cathepsin G (CatG).
The inhibitory activity assay is performed at 37°C in 0,1M Tric-HCl, 0,5M NaCl buffer, pH 7,5, within 10 min after initial pre-incubation of the enzyme with inhibitor tested at 37°C for 10 min. The enzyme concentration is 100nM. Substrate used MCA-Phe-Val-Thr-Gnf-Ser-Trp-Anb-NH2 at 2.5µM. Measurement is taken at an excitation wavelength of 325nm and 400nm emission.
as §2

The target of assay [3] is T4, subtilisin (Sub) (Bacillus licheniformis, UniProt P00780). The experiment in a line: Inhibitory activity toward subtilisin, fluorogenic substrate, microplate reader. How it is done: as §1
T4 sequence (P00780 106-379): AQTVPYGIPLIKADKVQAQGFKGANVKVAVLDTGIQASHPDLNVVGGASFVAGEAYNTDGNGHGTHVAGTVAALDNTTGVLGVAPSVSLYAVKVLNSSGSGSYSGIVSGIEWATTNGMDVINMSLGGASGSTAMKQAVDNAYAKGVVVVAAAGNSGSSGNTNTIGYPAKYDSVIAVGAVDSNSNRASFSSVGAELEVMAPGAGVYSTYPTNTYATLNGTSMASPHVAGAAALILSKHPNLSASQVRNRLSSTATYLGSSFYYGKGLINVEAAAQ
Measurement of inhibitory activity of compounds toward subtilisin (Sub).
The inhibitory activity assay is performed at 37°C in 0,05M Tris-HCl, 1M NaCl, 0,01% Triton X-100 buffer, pH 7,5, within 10 min after initial pre-incubation of the enzyme with inhibitor tested at 37°C for 10 min. The enzyme concentration is 5nM. Substrate used Me-Suc-Ala-Ala-Pro-Phe-AMC at 5µM. Measurement is taken at an excitation wavelength of 350nm and 460nm emission.
as §2

The target in assay [4] is T4, subtilisin (Sub). The assay is described as above. The conditions noted are these: 10 min, pH 7.5, read-out: Sub Kobs/[I].
The target in a further assay is chymotrypsin (ChTry) (Bos taurus, UniProt P00766). The experiment in a line: Inhibitory activity toward chymotrypsin, fluorogenic substrate, microplate reader. The conditions noted are these: 10 min pre-incubation at 37°C, pH 7,5, Suc-Ala-Ala-Pro-Phe-AMC 5µM; NI = brak inhibicji (no inhibition). How it is done:
as §1
Measurement of inhibitory activity of compounds toward […] (ChyTry).
The inhibitory activity assay is performed at 37°C in 0,1M HEPES, 0,5M NaCl buffer, pH 7,5, within 10 min after initial pre-incubation of the enzyme with inhibitor tested at 37°C for 10 min. The enzyme concentration is 3nM. Substrate used Suc-Ala-Ala-Pro-Phe-AMC at 5µM. Measurement is taken at an excitation wavelength of 350nm and 460nm emission.
as §2

A further assay concerns the target T5, trypsin (Try) (Bos taurus, UniProt P00760).
T5 sequence (P00760 24-246): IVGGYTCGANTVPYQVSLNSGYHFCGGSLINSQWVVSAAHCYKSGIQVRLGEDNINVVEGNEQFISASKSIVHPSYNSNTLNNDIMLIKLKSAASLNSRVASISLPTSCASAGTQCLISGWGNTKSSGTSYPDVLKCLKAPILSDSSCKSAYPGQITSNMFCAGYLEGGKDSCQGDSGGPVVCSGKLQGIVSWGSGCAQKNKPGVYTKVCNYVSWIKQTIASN
The experiment in a line: Inhibitory activity toward trypsin, fluorogenic substrate, microplate reader. The conditions noted are these: 10 min pre-incubation at 37°C, pH 7,5, Cbz-Arg-AFC 100µM; NI = brak inhibicji (no inhibition). How it is done: as §1
Measurement of inhibitory activity of compounds toward trypsin (Try).
The inhibitory activity assay is performed at 37°C in 0,1M HEPES, 0,5M NaCl, 0,03% Triton X-100 buffer, pH 7,5, within 10 min after initial pre-incubation of the enzyme with inhibitor tested at 37°C for 10 min. The enzyme concentration is 25nM. Substrate used Cbz-Arg-AFC at 100µM. Measurement is taken at an excitation wavelength of 400nm and 505nm emission.
as §2

Where [5] appears, read: read-out: PPE IC50, 10 min pre-incubation at 37°C, pH 8,5, Me-Suc-Ala-Ala-Pro-Val-AMC 100µM, NI = brak inhibicji (no inhibition).
Where [6] appears, read: read-out: PR3 IC50, 10 min pre-incubation at 37°C, pH 7,5, Abz-Tyr-Tyr-Abu-Anb-NH2 30µM, NI = brak inhibicji (no inhibition).
The mark [7] stands for this setting: 10 min pre-incubation at 37°C, pH 7,5, MCA-Phe-Val-Thr-Gnf-Ser-Trp-Anb-NH2 2.5µM, NI = brak inhibicji (no inhibition).

Results on three compounds are retold here after patent EP2676962A1, “Derivatives of 1-aminoalkylphosphonate diaryl esters, method of 1-aminoalkylphosphonate diaryl ester derivatives preparation and their application” (priority 2012, dated 2013).

The structures appear in SMILES notation. Like-named read-outs stand apart in the source and are kept apart here. Where only a bound is given, the exact number is not on record here.

Chain of porcine pancreatic elastase (PPE) (P00772 27-266): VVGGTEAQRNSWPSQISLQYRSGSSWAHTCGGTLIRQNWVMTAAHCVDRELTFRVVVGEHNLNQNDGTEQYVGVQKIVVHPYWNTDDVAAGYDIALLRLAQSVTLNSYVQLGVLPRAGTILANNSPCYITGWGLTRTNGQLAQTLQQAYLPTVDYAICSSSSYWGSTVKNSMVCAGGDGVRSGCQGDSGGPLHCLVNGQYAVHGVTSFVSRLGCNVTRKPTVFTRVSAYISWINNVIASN

In general, IC50 refers to the concentration needed to halve the response being measured. As to `CC(C)CC(NC(=O)C1CCCN1C(=O)C(NC(=O)CCCCC1SCC2NC(=O)NC21)C(C)C)P(=O)(Oc1ccccc1)Oc1ccccc1` (centres unmarked) [Compound 7, diphenyl (3-methyl-1-(1-(3-methyl-2-(5-(2-oxohexahydro-1H-thieno[3,4-d]imidazol-4-yl)pentanamido)butanoyl)pyrrolidine-2-carboxamido)butyl)phosphonate], the IC50 in assay [1] (read-out: HNE IC50, 10 min pre-incubation at 37°C, pH 7,5, Me-Suc-Ala-Ala-Pro-Val-AFC 25µM, NI = brak inhibicji (no inhibition)) is over 5000 nM; in assay [2] (setting [5]), over 5000 nM; at proteinase 3 (PR3) (setting [6]), over 5000 nM; at cathepsin G (CatG) (read-out: Cat G IC50, 10 min pre-incubation at 37°C, pH 7,5, MCA-Phe-Val-Thr-Gnf-Ser-Trp-Anb-NH2 2.5µM, NI = brak inhibicji (no inhibition)), over 5000 nM; on subtilisin (Sub) [3] it was 76.5 ± 1.65 nM. For the same compound, the kinact/KI on subtilisin (Sub) [4] stood at 15000 M⁻¹ s⁻¹.

In the case of `COC(=O)c1ccc(OP(=O)(Oc2ccc(C(=O)OC)cc2)C(CC(C)C)NC(=O)C2CCCN2C(=O)C(NC(=O)CCCCC2SCC3NC(=O)NC32)C(C)C)cc1` (centres unmarked) [Compound 9, dimethyl 4,4'-(((3-methyl-1-(1-(3-methyl-2-(5-(2-oxohexahydro-1H-thieno[3,4-d]imidazol-4-yl)pentanamido)butanoyl)pyrrolidine-2-carboxamido)butyl)phosphoryl)bis(oxy))dibenzoate], the IC50 is 5.61 ± 0.02 nM in assay [1]; over 5000 nM in assay [2]; 59.5 ± 8 nM against proteinase 3 (PR3); 720 ± 60 nM against cathepsin G (CatG); 21.2 ± 1.2 nM against subtilisin (Sub) [3]. The “PPE Kobs/[I]” value in assay [2] (10 min pre-incubation at 37°C, pH 8,5, Me-Suc-Ala-Ala-Pro-Val-AMC 100µM, NI = brak inhibicji (no inhibition)) was under 200 M^-1S^-1. In addition, the “PR3 Kobs/[I]” value on proteinase 3 (PR3) (10 min pre-incubation at 37°C, pH 7,5, Abz-Tyr-Tyr-Abu-Anb-NH2 30µM, NI = brak inhibicji (no inhibition)) is reported as 3.9*10^4 M^-1S^-1. Moreover, the “Cat G Kobs/[I]” value at cathepsin G (CatG) (setting [7]) was 1.6*10^3 M^-1S^-1. Further, the “ChyTr Kobs/[I]” value on chymotrypsin (ChTry) is 5.2*10^4 M^-1S^-1. Besides, the “Sub Kobs/[I]” value at subtilisin (Sub) [3] (10 min pre-incubation at 37°C, pH 7,5, Me-Suc-Ala-Ala-Pro-Phe-AMC 5µM, NI = brak inhibicji (no inhibition)) is 5.4*10^4 M^-1S^-1. Besides, the “Try Kobs/[I]” value at trypsin (Try) is 4.4*10^4 M^-1S^-1.

Turning to `CSc1ccc(OP(=O)(Oc2ccc(SC)cc2)C(Cc2ccccc2)NC(=O)C2CCCN2C(=O)C(NC(=O)CCCCC2SCC3NC(=O)NC32)C(C)C)cc1` (centres unmarked) [Compound 6, bis(4-(methylthio)phenyl) (1-(1-(3-methyl-2-(5-(2-oxohexahydro-1H-thieno[3,4-d]imidazol-4-yl)pentanamido)butanoyl)pyrrolidine-2-carboxamido)-2-phenylethyl)phosphonate], the IC50 in assay [1] was 1.55 ± 0.05 nM; in assay [2] (setting [5]), over 5000 nM; at proteinase 3 (PR3) (setting [6]) it was over 5000 nM; against cathepsin G (CatG) it was 218 ± 45 nM; against subtilisin (Sub) [3], 5.6 ± 0.8 nM. Besides, in assay [1] (10 min pre-incubation at 37°C, pH 7,5, Me-Suc-Ala-Ala-Pro-Val-AFC 25µM, NI = brak inhibicji (no inhibition)), the “HNE Kobs/[I]” value is listed as 2.5*10^5 M^-1S^-1. For the same compound, the “Cat G Kobs/[I]” value at cathepsin G (CatG) (setting [7]) is 5.3*10^3 M^-1S^-1. For the same compound, the “ChyTr Kobs/[I]” value at chymotrypsin (ChTry) is on record as 1.0*10^5 M^-1S^-1. The “Try Kobs/[I]” value on trypsin (Try) is listed as 3.7*10^2 M^-1S^-1.
